According to the NIST ThermoML archive (doi:10.1016/j.fluid.2006.05.032):

Experiment: xn = mol fraction of the nth substance listed
Details: Liquid, Vibrating tube method

Cc1ccccc1 [toluene] + CCCO
mass density [kg/m3]
Details | x2 = 0 | x2 = 0.125 | x2 = 0.25 | x2 = 0.375 | x2 = 0.5 | x2 = 0.625 | x2 = 0.75 | x2 = 0.875
293.15 K, 100 kPa | 867.1 | 860.6 | 854.5 | 848.1 | 841.2 | 833.5 | 825.1 | 815.3
293.15 K, 5000 kPa | 870.6 | 864.1 | 858.2 | 851.7 | 844.7 | 837 | 828.7 | 818.9
293.15 K, 10000 kPa | 874.2 | 867.7 | 861.7 | 855.1 | 848.4 | 840.6 | 832.3 | 822.6
293.15 K, 15000 kPa | 877.6 | 871.2 | 865.2 | 858.6 | 851.8 | 844.1 | 835.8 | 826.1
293.15 K, 20000 kPa | 881.1 | 874.5 | 868.5 | 861.9 | 855.1 | 847.4 | 839.2 | 829.4
293.15 K, 25000 kPa | 884.2 | 877.8 | 871.7 | 865.1 | 858.3 | 850.6 | 842.4 | 832.6
293.15 K, 30000 kPa | 887.3 | 880.9 | 874.9 | 868.3 | 861.5 | 853.7 | 845.4 | 835.7
293.15 K, 35000 kPa | 890.3 | 883.9 | 877.9 | 871.3 | 864.5 | 856.7 | 848.4 | 838.7
293.15 K, 40000 kPa | 893.3 | 886.9 | 880.9 | 874.2 | 867.4 | 859.7 | 851.3 | 841.7
293.15 K, 45000 kPa | 896.1 | 889.7 | 883.7 | 877.1 | 870.3 | 862.6 | 854.1 | 844.4
293.15 K, 50000 kPa | 898.9 | 892.5 | 886.5 | 879.9 | 873.1 | 865.3 | 856.9 | 847.2
293.15 K, 55000 kPa | 901.6 | 895.2 | 889.2 | 882.6 | 875.7 | 868 | 859.6 | 849.7
293.15 K, 60000 kPa | 904.2 | 897.9 | 891.8 | 885.2 | 878.3 | 870.6 | 862.1 | 852.3
293.15 K, 65000 kPa | 906.7 | 900.5 | 894.4 | 887.7 | 880.9 | 873.1 | 864.7 | 854.8
303.15 K, 100 kPa | 857.5 | 851.1 | 845 | 838.6 | 832 | 824.4 | 816.1 | 806.6
303.15 K, 5000 kPa | 861.4 | 855 | 848.9 | 842.4 | 835.9 | 828.3 | 820.1 | 810.6
303.15 K, 10000 kPa | 865.1 | 858.8 | 852.7 | 846.2 | 839.8 | 832.2 | 824 | 814.3
303.15 K, 15000 kPa | 869 | 862.4 | 856.4 | 849.9 | 843.4 | 835.8 | 827.8 | 818.3
303.15 K, 20000 kPa | 872.4 | 866 | 859.9 | 853.4 | 846.9 | 839.4 | 831.3 | 821.7
303.15 K, 25000 kPa | 875.8 | 869.4 | 863.3 | 856.8 | 850.4 | 842.8 | 834.6 | 825.2
303.15 K, 30000 kPa | 879 | 872.6 | 866.6 | 860.1 | 853.5 | 846 | 837.7 | 828.3
303.15 K, 35000 kPa | 882.1 | 875.8 | 869.8 | 863.3 | 856.7 | 849.2 | 840.8 | 831.4
303.15 K, 40000 kPa | 885.2 | 878.9 | 872.8 | 866.4 | 859.7 | 852.3 | 843.9 | 834.4
303.15 K, 45000 kPa | 888.2 | 881.8 | 875.6 | 869.3 | 862.6 | 855.1 | 846.9 | 837.3
303.15 K, 50000 kPa | 891.1 | 884.8 | 878.5 | 872.2 | 865.5 | 858 | 849.7 | 840.1
303.15 K, 55000 kPa | 894 | 887.6 | 881.4 | 875.1 | 868.6 | 860.9 | 852.5 | 843
303.15 K, 60000 kPa | 896.7 | 890.3 | 884.1 | 877.8 | 871.1 | 863.6 | 855.2 | 845.6
303.15 K, 65000 kPa | 899.2 | 893 | 886.7 | 880.4 | 873.7 | 866.1 | 857.8 | 848.2
313.15 K, 100 kPa | 847.8 | 841.3 | 835.1 | 829 | 822.4 | 815.2 | 807.3 | 797.9
313.15 K, 5000 kPa | 852 | 845.5 | 839.3 | 833.1 | 826.6 | 819.3 | 811.5 | 802.1
313.15 K, 10000 kPa | 856.1 | 849.6 | 843.4 | 837.2 | 830.7 | 823.4 | 815.5 | 806.2
313.15 K, 15000 kPa | 859.9 | 853.6 | 847.4 | 841.2 | 834.7 | 827.5 | 819.3 | 810
313.15 K, 20000 kPa | 863.5 | 857.3 | 851.1 | 844.9 | 838.4 | 831.2 | 823 | 813.6
313.15 K, 25000 kPa | 867.1 | 860.9 | 854.7 | 848.5 | 841.9 | 834.7 | 826.5 | 817.1
313.15 K, 30000 kPa | 870.5 | 864.3 | 858.1 | 851.9 | 845.4 | 838.1 | 829.9 | 820.5
313.15 K, 35000 kPa | 873.8 | 867.6 | 861.5 | 855.3 | 848.7 | 841.4 | 833.2 | 823.7
313.15 K, 40000 kPa | 877 | 870.8 | 864.7 | 858.4 | 851.9 | 844.6 | 836.4 | 826.9
313.15 K, 45000 kPa | 880.2 | 874 | 867.8 | 861.6 | 855 | 847.7 | 839.4 | 830
313.15 K, 50000 kPa | 883.3 | 876.9 | 870.8 | 864.5 | 857.9 | 850.6 | 842.5 | 833
313.15 K, 55000 kPa | 886.2 | 879.9 | 873.8 | 867.5 | 860.9 | 853.5 | 845.3 | 835.9
313.15 K, 60000 kPa | 889 | 882.7 | 876.6 | 870.4 | 863.7 | 856.3 | 848.2 | 838.7
313.15 K, 65000 kPa | 891.8 | 885.5 | 879.3 | 873.1 | 866.5 | 859.1 | 850.9 | 841.4
323.15 K, 100 kPa | 838.4 | 831.7 | 825.5 | 819.3 | 812.9 | 805.9 | 798.2 | 789.3
323.15 K, 5000 kPa | 842.7 | 836.2 | 829.9 | 823.8 | 817.3 | 810.3 | 802.6 | 793.6
323.15 K, 10000 kPa | 847 | 840.5 | 834.3 | 828 | 821.6 | 814.5 | 806.9 | 797.9
323.15 K, 15000 kPa | 851.1 | 844.5 | 838.4 | 832.2 | 825.8 | 818.7 | 810.9 | 801.8
323.15 K, 20000 kPa | 855 | 848.5 | 842.3 | 836.1 | 829.7 | 822.6 | 814.8 | 805.7
323.15 K, 25000 kPa | 858.9 | 852.2 | 846.1 | 839.9 | 833.5 | 826.3 | 818.6 | 809.5
323.15 K, 30000 kPa | 862.5 | 855.9 | 849.7 | 843.5 | 837.1 | 829.9 | 822.2 | 813
